Test results taken from the supplement of paper PMC10307832.

How the values were obtained:
Assay in all cases: relative viability (nuclei count vs DMSO), 5 days (fraction); higher = more cells survive
201T = system: 201T
Procedure, shortened: (§1)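 Each reported value is a median over duplicate plates. It expresses relative viability: treated-well nuclei count divided by vehicle-well nuclei count. Lung cancer cell lines in 1536-well plates were dosed by pin tool a day after seeding, alone with one drug or with a fixed anchor-drug dose plus five library-drug doses (not always all listed) in √10 steps, and nuclei were counted after 5 days.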

BEN = system: BEN
Procedure, shortened: as §1

CAL-12T = system: CAL-12T
Procedure, shortened: as §1

HCC-44 = system: HCC-44
Procedure, shortened: as §1

HCC-827 = system: HCC-827
Procedure, shortened: as §1

HOP-62 = system: HOP-62
Procedure, shortened: as §1

LCLC-103H = system: LCLC-103H
Procedure, shortened: as §1

LCLC-97TM1 = system: LCLC-97TM1
Procedure, shortened: as §1

LXF-289 = system: LXF-289
Procedure, shortened: as §1

NCI-H1395 = system: NCI-H1395
Procedure, shortened: as §1

NCI-H1437 = system: NCI-H1437
Procedure, shortened: as §1

NCI-H1650 = system: NCI-H1650
Procedure, shortened: as §1

NCI-H1793 = system: NCI-H1793
Procedure, shortened: as §1

NCI-H1944 = system: NCI-H1944
Procedure, shortened: as §1

NCI-H2087 = system: NCI-H2087
Procedure, shortened: as §1

NCI-H2228 = system: NCI-H2228
Procedure, shortened: as §1

NCI-H2405 = system: NCI-H2405
Procedure, shortened: as §1

NCI-H3122 = system: NCI-H3122
Procedure, shortened: as §1

NCI-H322M = system: NCI-H322M
Procedure, shortened: as §1

NCI-H647 = system: NCI-H647
Procedure, shortened: as §1

NCI-H727 = system: NCI-H727
Procedure, shortened: as §1

RERF-LC-KJ = system: RERF-LC-KJ
Procedure, shortened: as §1

SK-LU-1 = system: SK-LU-1
Procedure, shortened: as §1

Structure (SMILES): NC(=O)Nc1cc(-c2cccc(F)c2)sc1C(=O)N[C@H]1CCCNC1 [AZD7762] + O=C(CCCCCCC(=O)Nc1ccccc1)NO [Vorinostat] (partner 1 µM)
- relative viability (201T; first compound 0.01 µM): 0.996
- relative viability (201T; first compound 0.03162 µM): 1.03
- relative viability (201T; first compound 0.1 µM): 1.03
- relative viability (201T; first compound 0.3162 µM): 1.08
- relative viability (201T; first compound 1 µM): 1.01
- relative viability (BEN; first compound 0.01 µM): 0.639
- relative viability (BEN; first compound 0.03162 µM): 0.558
- relative viability (BEN; first compound 0.1 µM): 0.633
- relative viability (BEN; first compound 0.3162 µM): 0.619
- relative viability (BEN; first compound 1 µM): 0.543
- relative viability (CAL-12T; first compound 0.01 µM): 0.861
- relative viability (CAL-12T; first compound 0.03162 µM): 0.693
- relative viability (CAL-12T; first compound 0.1 µM): 0.9
- relative viability (CAL-12T; first compound 0.3162 µM): 0.276
- relative viability (CAL-12T; first compound 1 µM): 0.167
- relative viability (HCC-44; first compound 0.01 µM): 1.08
- relative viability (HCC-44; first compound 0.03162 µM): 1.11
- relative viability (HCC-44; first compound 0.1 µM): 1.1
- relative viability (HCC-44; first compound 0.3162 µM): 1.1
- relative viability (HCC-44; first compound 1 µM): 1.02
- relative viability (HCC-827; first compound 0.01 µM): 0.984
- relative viability (HCC-827; first compound 0.03162 µM): 0.947
- relative viability (HCC-827; first compound 0.1 µM): 0.846
- relative viability (HCC-827; first compound 0.3162 µM): 0.753
- relative viability (HCC-827; first compound 1 µM): 0.618
- relative viability (HOP-62; first compound 0.01 µM): 0.571
- relative viability (HOP-62; first compound 0.03162 µM): 0.68
- relative viability (HOP-62; first compound 0.1 µM): 0.701
- relative viability (HOP-62; first compound 0.3162 µM): 0.607
- relative viability (HOP-62; first compound 1 µM): 0.237
- relative viability (LCLC-103H; first compound 0.01 µM): 0.857
- relative viability (LCLC-103H; first compound 0.03162 µM): 0.776
- relative viability (LCLC-103H; first compound 0.1 µM): 0.842
- relative viability (LCLC-103H; first compound 0.3162 µM): 0.591
- relative viability (LCLC-103H; first compound 1 µM): 0.69
- relative viability (LCLC-97TM1; first compound 0.01 µM): 0.799
- relative viability (LCLC-97TM1; first compound 0.03162 µM): 0.725
- relative viability (LCLC-97TM1; first compound 0.1 µM): 0.648
- relative viability (LCLC-97TM1; first compound 0.3162 µM): 0.636
- relative viability (LCLC-97TM1; first compound 1 µM): 0.356
- relative viability (LXF-289; first compound 0.01 µM): 0.67
- relative viability (LXF-289; first compound 0.03162 µM): 0.802
- relative viability (LXF-289; first compound 0.1 µM): 0.77
- relative viability (LXF-289; first compound 0.3162 µM): 0.78
- relative viability (LXF-289; first compound 1 µM): 0.83
- relative viability (NCI-H1395; first compound 0.01 µM): 0.721
- relative viability (NCI-H1395; first compound 0.03162 µM): 0.84
- relative viability (NCI-H1395; first compound 0.1 µM): 0.684
- relative viability (NCI-H1395; first compound 0.3162 µM): 0.32
- relative viability (NCI-H1395; first compound 1 µM): 0.336
- relative viability (NCI-H1437; first compound 0.01 µM): 0.964
- relative viability (NCI-H1437; first compound 0.03162 µM): 0.85
- relative viability (NCI-H1437; first compound 0.1 µM): 0.88
- relative viability (NCI-H1437; first compound 0.3162 µM): 0.639
- relative viability (NCI-H1437; first compound 1 µM): 0.49
- relative viability (NCI-H1650; first compound 0.01 µM): 0.622
- relative viability (NCI-H1650; first compound 0.03162 µM): 0.719
- relative viability (NCI-H1650; first compound 0.1 µM): 0.651
- relative viability (NCI-H1650; first compound 0.3162 µM): 0.392
- relative viability (NCI-H1650; first compound 1 µM): 0.157
- relative viability (NCI-H1793; first compound 0.01 µM): 0.692
- relative viability (NCI-H1793; first compound 0.03162 µM): 0.878
- relative viability (NCI-H1793; first compound 0.1 µM): 0.981
- relative viability (NCI-H1793; first compound 0.3162 µM): 0.953
- relative viability (NCI-H1793; first compound 1 µM): 0.284
- relative viability (NCI-H1944; first compound 0.01 µM): 0.544
- relative viability (NCI-H1944; first compound 0.03162 µM): 0.654
- relative viability (NCI-H1944; first compound 0.1 µM): 0.611
- relative viability (NCI-H1944; first compound 0.3162 µM): 0.568
- relative viability (NCI-H1944; first compound 1 µM): 0.295
- relative viability (NCI-H2087; first compound 0.01 µM): 0.891
- relative viability (NCI-H2087; first compound 0.03162 µM): 0.874
- relative viability (NCI-H2087; first compound 0.1 µM): 0.841
- relative viability (NCI-H2087; first compound 0.3162 µM): 0.976
- relative viability (NCI-H2087; first compound 1 µM): 0.791
- relative viability (NCI-H2228; first compound 0.01 µM): 1.06
- relative viability (NCI-H2228; first compound 0.03162 µM): 0.443
- relative viability (NCI-H2228; first compound 0.1 µM): 0.59
- relative viability (NCI-H2228; first compound 0.3162 µM): 0.383
- relative viability (NCI-H2228; first compound 1 µM): 0.299
- relative viability (NCI-H2405; first compound 0.01 µM): 1.08
- relative viability (NCI-H2405; first compound 0.03162 µM): 1.08
- relative viability (NCI-H2405; first compound 0.1 µM): 0.976
- relative viability (NCI-H2405; first compound 0.3162 µM): 0.756
- relative viability (NCI-H2405; first compound 1 µM): 0.521
- relative viability (NCI-H3122; first compound 0.01 µM): 0.936
- relative viability (NCI-H3122; first compound 0.03162 µM): 0.927
- relative viability (NCI-H3122; first compound 0.1 µM): 1.06
- relative viability (NCI-H3122; first compound 0.3162 µM): 0.925
- relative viability (NCI-H3122; first compound 1 µM): 0.973
- relative viability (NCI-H322M; first compound 0.01 µM): 0.822
- relative viability (NCI-H322M; first compound 0.03162 µM): 0.967
- relative viability (NCI-H322M; first compound 0.1 µM): 0.935
- relative viability (NCI-H322M; first compound 0.3162 µM): 0.792
- relative viability (NCI-H322M; first compound 1 µM): 0.478
- relative viability (NCI-H647; first compound 0.01 µM): 0.637
- relative viability (NCI-H647; first compound 0.03162 µM): 0.554
- relative viability (NCI-H647; first compound 0.1 µM): 0.521
- relative viability (NCI-H647; first compound 0.3162 µM): 0.281
- relative viability (NCI-H647; first compound 1 µM): 0.108
- relative viability (NCI-H727; first compound 0.01 µM): 1.18
- relative viability (NCI-H727; first compound 0.03162 µM): 1.26
- relative viability (NCI-H727; first compound 0.1 µM): 1.2
- relative viability (NCI-H727; first compound 0.3162 µM): 1.24
- relative viability (NCI-H727; first compound 1 µM): 0.868
- relative viability (RERF-LC-KJ; first compound 0.01 µM): 0.749
- relative viability (RERF-LC-KJ; first compound 0.03162 µM): 0.695
- relative viability (RERF-LC-KJ; first compound 0.1 µM): 0.711
- relative viability (RERF-LC-KJ; first compound 0.3162 µM): 0.722
- relative viability (RERF-LC-KJ; first compound 1 µM): 0.601
- relative viability (SK-LU-1; first compound 0.01 µM): 0.909
- relative viability (SK-LU-1; first compound 0.03162 µM): 0.663
- relative viability (SK-LU-1; first compound 0.1 µM): 0.563
- relative viability (SK-LU-1; first compound 0.3162 µM): 0.273
- relative viability (SK-LU-1; first compound 1 µM): 0.276
